# Test results taken from US11584755B2 (IDEAYA BIOSCIENCES, INC., priority 2017, dated 2023).
# Columns and labels:
# Type in all cases: biochemical
# [1] = target: hFEN1 (Homo sapiens (Human), UniProt P39748); test: Enzymatic IC50 assay, FAM-labeled DNA oligomer substrate, fluorescence intensity (FEN1); settings: hFEN1 70 pM, substrate 100 nM, reaction time 20 minutes, 23° C.
# Outline: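 FEN1, EXO1 or XPG was preincubated 15 min with compound, then the FAM-labelled DNA oligomer substrate was added in Tris-HCl pH 8.0 with 10 mM MgCl2 at 23° C. FEN1 was 70 pM with 100 nM substrate for 20 min, EXO1 6 nM with 30 nM for 60 min, and XPG 100 nM with 100 nM for 120 min. Reactions were EDTA-stopped and read by fluorescence intensity.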
# [2] = target: hEXO1, Isoform1 (Homo sapiens (Human), UniProt Q9UQ84); test: Enzymatic IC50 assay, FAM-labeled DNA oligomer substrate, fluorescence intensity (EXO1); settings: hEXO1 6 nM, substrate 30 nM, reaction time 60 minutes, 23° C.
# Procedure: (§1) FEN1, EXO1 or XPG enzyme was incubated with compound or vehicle (DMSO) and the FAM-labeled DNA oligomer substrate in a microtiter plate. The stop buffer contains EDTA to stop the enzymatic reaction. The plate is read for fluorescence intensity. The high control (DMSO) with high fluorescence intensity represents no inhibition of enzymatic reaction while the low control (10 μM) with low fluorescence intensity represents full inhibition of enzymatic reaction.
# (§2) • FEN1 • hFEN1: 70 pM • Substrate: 100 nM • Reaction time: 20 minutes • EXO1 • hEXO1: 6 nM, Isoforml • Substrate: 30 nM • Reaction time: 60 minutes • XPG • hXPG: 100 nM • Substrate: 100 nM • Reaction time: 120 minutes
# (§3) Annealing Buffer: 50 mM Tris-HCl, 50 mM NaCl, 1 mM DTT Assay buffer: 50 mM Tris-HCl pH 8.0, 10 mM MgCl2, 0.01% BSA, 1 mM DTT Stop buffer: 50 mM EDTA in assay buffer Temperature: 23° C. Total volume: 40 μl Controls: • 0% inhibition control: DMSO • 100% inhibition control: 10 μM (final) 5-chloro-3-hydroxy-1,3-dihydroquinazoline-2,4-dione Enzyme Reaction and Detection: • 1. Prepare 25 μM intermediate stock of the substrate by diluting SEQ ID NO:1, SEQ ID NO:2, and SEQ ID NO:3 in annealing buffer, in a PCR tube. • 2. Place the PCR tube on a heat block, heat at 95° C. for 3 minutes, then drop in 0.2° C. increments over 2 minutes, stopping at 25° C. • 3. Remove the tube and let the tube cool at room temperature. • 4. Transfer 10 μL of 3× final concentration test compounds or DMSO to the appropriate wells of a microtiter plate. • 5. Transfer 10 μL of 3× final concentration enzyme in assay buffer or assay buffer alone to the appropriate wells. • 6. Incubate the plate at room temperature for 15 minutes. • 7. Transfer 10 μL of 3× substrate in assay buffer to all the test wells. • 8. Incubate the plate at room temperature for prescribed reaction time. • 9. Centrifuge the plate at 1000 rpm for 1 minute. • 10. Transfer 10 μL of stop buffer to all the test wells. • 11. Centrifuge the plate at 1000 rpm for 1 minute. • 12. Read the plate on a plate reader.
# [3] = target: hXPG (Homo sapiens (Human), UniProt P28715); test: Enzymatic IC50 assay, FAM-labeled DNA oligomer substrate, fluorescence intensity (XPG); settings: hXPG 100 nM, substrate 100 nM, reaction time 120 minutes, 23° C.
# Procedure: as §1, §2, §3
# Sequence of hFEN1 (P39748 whole entry): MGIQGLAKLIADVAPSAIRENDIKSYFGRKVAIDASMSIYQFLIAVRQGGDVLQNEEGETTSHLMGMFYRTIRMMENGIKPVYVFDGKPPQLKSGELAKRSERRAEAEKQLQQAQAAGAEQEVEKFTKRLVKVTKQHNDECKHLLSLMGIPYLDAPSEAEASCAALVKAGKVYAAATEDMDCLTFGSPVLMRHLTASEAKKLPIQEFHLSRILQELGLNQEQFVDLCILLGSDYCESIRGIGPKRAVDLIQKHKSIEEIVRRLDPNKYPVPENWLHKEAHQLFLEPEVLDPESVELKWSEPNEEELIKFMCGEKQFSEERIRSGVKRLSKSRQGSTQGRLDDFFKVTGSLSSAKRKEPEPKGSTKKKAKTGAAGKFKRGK
# Sequence of hXPG (P28715 whole entry): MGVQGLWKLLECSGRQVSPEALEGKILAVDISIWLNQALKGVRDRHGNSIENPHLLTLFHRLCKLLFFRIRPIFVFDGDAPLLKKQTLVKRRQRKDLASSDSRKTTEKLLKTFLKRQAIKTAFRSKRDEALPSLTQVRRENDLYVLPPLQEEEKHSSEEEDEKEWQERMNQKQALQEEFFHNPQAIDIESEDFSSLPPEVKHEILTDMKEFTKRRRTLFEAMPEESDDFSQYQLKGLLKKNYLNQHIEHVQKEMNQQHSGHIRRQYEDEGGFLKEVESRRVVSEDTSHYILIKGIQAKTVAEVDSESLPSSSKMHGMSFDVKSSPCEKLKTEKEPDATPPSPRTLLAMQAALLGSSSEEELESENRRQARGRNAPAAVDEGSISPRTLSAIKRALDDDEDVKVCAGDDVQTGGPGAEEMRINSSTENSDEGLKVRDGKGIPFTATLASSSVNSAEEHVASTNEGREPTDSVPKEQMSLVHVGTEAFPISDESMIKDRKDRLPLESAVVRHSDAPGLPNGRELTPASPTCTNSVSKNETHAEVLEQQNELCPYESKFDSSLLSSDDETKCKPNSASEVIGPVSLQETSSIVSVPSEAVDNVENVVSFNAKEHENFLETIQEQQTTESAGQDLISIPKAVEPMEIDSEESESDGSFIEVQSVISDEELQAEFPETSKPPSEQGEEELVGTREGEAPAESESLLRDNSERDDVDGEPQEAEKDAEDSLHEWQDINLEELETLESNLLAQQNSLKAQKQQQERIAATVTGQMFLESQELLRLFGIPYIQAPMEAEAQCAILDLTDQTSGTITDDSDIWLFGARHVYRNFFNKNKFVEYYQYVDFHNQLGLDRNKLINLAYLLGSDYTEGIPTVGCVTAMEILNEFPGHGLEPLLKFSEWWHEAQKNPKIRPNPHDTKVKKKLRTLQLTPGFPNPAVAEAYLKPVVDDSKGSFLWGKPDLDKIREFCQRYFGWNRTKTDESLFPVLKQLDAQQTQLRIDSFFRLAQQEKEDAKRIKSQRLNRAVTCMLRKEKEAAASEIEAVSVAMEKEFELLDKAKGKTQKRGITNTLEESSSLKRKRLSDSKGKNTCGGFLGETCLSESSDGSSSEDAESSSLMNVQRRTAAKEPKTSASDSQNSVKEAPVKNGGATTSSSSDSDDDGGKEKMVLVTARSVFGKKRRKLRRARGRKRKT
# Sequence of hEXO1, Isoform1 (Q9UQ84 whole entry, canonical isoform): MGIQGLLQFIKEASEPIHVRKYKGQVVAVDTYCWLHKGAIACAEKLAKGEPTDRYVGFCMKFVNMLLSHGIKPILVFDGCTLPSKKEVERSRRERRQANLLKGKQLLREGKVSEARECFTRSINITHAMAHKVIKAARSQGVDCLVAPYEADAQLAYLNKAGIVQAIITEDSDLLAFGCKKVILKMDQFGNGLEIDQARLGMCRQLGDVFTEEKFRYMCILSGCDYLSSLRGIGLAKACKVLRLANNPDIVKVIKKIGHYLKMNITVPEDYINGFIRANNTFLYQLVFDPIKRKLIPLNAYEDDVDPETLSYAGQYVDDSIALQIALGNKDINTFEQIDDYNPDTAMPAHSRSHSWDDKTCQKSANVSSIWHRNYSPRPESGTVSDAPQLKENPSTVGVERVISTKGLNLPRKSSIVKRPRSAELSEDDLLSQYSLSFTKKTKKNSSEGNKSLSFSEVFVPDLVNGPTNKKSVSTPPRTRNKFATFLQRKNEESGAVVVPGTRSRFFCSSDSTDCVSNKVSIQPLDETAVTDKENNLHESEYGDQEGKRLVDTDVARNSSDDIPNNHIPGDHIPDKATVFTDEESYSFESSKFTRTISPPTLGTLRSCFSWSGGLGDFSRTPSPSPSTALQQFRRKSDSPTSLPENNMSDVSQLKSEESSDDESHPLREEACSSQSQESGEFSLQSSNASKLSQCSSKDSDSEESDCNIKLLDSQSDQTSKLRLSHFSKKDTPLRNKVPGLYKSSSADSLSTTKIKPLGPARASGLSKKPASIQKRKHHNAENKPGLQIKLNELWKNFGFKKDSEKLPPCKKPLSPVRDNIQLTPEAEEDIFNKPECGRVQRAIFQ
Structure (SMILES),IC50 [1] [nM],IC50 [2] [nM],IC50 [3] [nM]
"COc1ccc(-n2cc(Cn3c(=O)c(O)c(C(=O)O)c4sccc43)cn2)cc1 [Example 113, 6-hydroxy-4-{[1-(4-methoxyphenyl)-1H-pyrazol-4-yl]methyl}-5-oxo-4,5-dihydrothieno[3,2-b]pyridine-7-carboxylic acid]",< 200,250 to 750,750 to 2250
"O=C(O)c1c(O)c(=O)n(Cc2cn(-c3ccc4nc[nH]c4c3)nn2)c2ccsc12 [Example 149, 4-{[1-(1H-benzo[d]imidazol-6-yl)-1H-1,2,3-triazol-4-yl]methyl}-6-hydroxy-5-oxo-4,5-dihydrothieno[3,2-b]pyridine-7-carboxylic acid]",< 200,2250 to 10000,750 to 2250
"O=C(O)c1c(O)c(=O)n(Cc2cccc(Br)c2)c2ccsc12 [Example 1, 4-(3-bromobenzyl)-6-hydroxy-5-oxo-4,5-dihydrothieno[3,2-b]pyridine-7-carboxylic acid]",250 to 750,2250 to 10000,2250 to 10000
"CC(=O)Nc1cccc(-c2cccc(Cn3c(=O)c(O)c(C(=O)O)c4sccc43)c2)c1 [Example 2, 4-((3′-acetamido-[1,1′-biphenyl]-3-yl)methyl)-6-hydroxy-5-oxo-4,5-dihydrothieno[3,2-b]pyridine-7-carboxylic acid]",250 to 750,2250 to 10000,2250 to 10000
"COc1ccc(Cn2c(=O)c(O)c(C(=O)O)c3sccc32)cc1 [Example 12, 6-hydroxy-4-[(4-methoxyphenyl)methyl]-5-oxo-thieno[3,2-b]pyridine-7-carboxylic acid]",< 200,2250 to 10000,2250 to 10000
"O=C(O)c1c(O)c(=O)n(Cc2ccc(Br)cc2)c2ccsc12 [Example 5, 4-(4-bromobenzyl)-6-hydroxy-5-oxo-4,5-dihydrothieno[3,2-b]pyridine-7-carboxylic acid]",250 to 750,2250 to 10000,2250 to 10000
"O=C(O)c1c(O)c(=O)n(Cc2cnn(Cc3cn4ccncc4n3)c2)c2ccsc12 [Example 125, 6-hydroxy-4-{[1-(imidazo[1,2-a]pyrazin-2-ylmethyl)-1H-pyrazol-4-yl]methyl}-5-oxo-4,5-dihydrothieno[3,2-b]pyridine-7-carboxylic acid]",< 200,750 to 2250,2250 to 10000
"CS(=O)(=O)c1ccc(Cn2cc(Cn3c(=O)c(O)c(C(=O)O)c4sccc43)cn2)cc1 [Example 130, 6-hydroxy-4-({1-[4-(methylsulfonyl)benzyl]-1H-pyrazol-4-yl}methyl)-5-oxo-4,5-dihydrothieno[3,2-b]pyridine-7-carboxylic acid]",< 200,2250 to 10000,2250 to 10000
"O=C(O)c1c(O)c(=O)n(Cc2ccc(Oc3ccccc3)cc2)c2ccsc12 [Example 81, 6-hydroxy-5-oxo-4-(4-phenoxybenzyl)-4,5-dihydrothieno[3,2-b]pyridine-7-carboxylic acid]",250 to 750,2250 to 10000,2250 to 10000
"CS(=O)(=O)Nc1ccc(-n2cc(Cn3c(=O)c(O)c(C(=O)O)c4sccc43)cn2)cc1 [Example 117, 6-hydroxy-4-({1-[4-(methylsulfonamido)phenyl]-1H-pyrazol-4-yl}methyl)-5-oxo-4,5-dihydrothieno[3,2-b]pyridine-7-carboxylic acid]",< 200,250 to 750,250 to 750
"Nc1ccc(Cn2c(=O)c(O)c(C(=O)O)c3sccc32)cc1 [Example 53, 4-(4-aminobenzyl)-6-hydroxy-5-oxo-4,5-dihydrothieno[3,2-b]pyridine-7-carboxylic acid]",< 200,2250 to 10000,2250 to 10000
"O=C(O)c1c(O)c(=O)n(Cc2cnn(Cc3ccc4nonc4c3)c2)c2ccsc12 [Example 141, 4-{[1-(benzo[c][1,2,5]oxadiazol-5-ylmethyl)-1H-pyrazol-4-yl]methyl}-6-hydroxy-5-oxo-4,5-dihydrothieno[3,2-b]pyridine-7-carboxylic acid]",< 200,750 to 2250,2250 to 10000
"CS(=O)(=O)c1cccc(Cn2cc(Cn3c(=O)c(O)c(C(=O)O)c4sccc43)cn2)c1 [Example 131, 6-hydroxy-4-({1-[3-(methylsulfonyl)benzyl]-1H-pyrazol-4-yl}methyl)-5-oxo-4,5-dihydrothieno[3,2-b]pyridine-7-carboxylic acid]",< 200,2250 to 10000,2250 to 10000
"O=C(O)c1c(O)c(=O)n(Cc2cnn3ccccc23)c2ccsc12 [Example 24, 6-hydroxy-5-oxo-4-(pyrazolo[1,5-a]pyridin-3-ylmethyl)-4,5-dihydrothieno[3,2-b]pyridine-7-carboxylic acid]",< 200,750 to 2250,< 200
"O=C(O)c1c(O)c(=O)n(Cc2cnn(Cc3ccccn3)c2)c2ccsc12 [Example 119, 6-hydroxy-5-oxo-4-{[1-(pyridin-2-ylmethyl)-1H-pyrazol-4-yl]methyl}-4,5-dihydrothieno[3,2-b]pyridine-7-carboxylic acid]",< 200,2250 to 10000,> 10000
"O=C(O)c1c(O)c(=O)n(Cc2ccc3[nH]cnc3c2)c2ccsc12 [Example 99, 4-[(1H-benzo[d]imidazol-5-yl)methyl]-6-hydroxy-5-oxo-4,5-dihydrothieno[3,2-b]pyridine-7-carboxylic acid]",< 200,750 to 2250,2250 to 10000
"N#Cc1ccc(Cn2cc(Cn3c(=O)c(O)c(C(=O)O)c4sccc43)cn2)cc1 [Example 127, 4-{[1-(4-cyanobenzyl)-1H-pyrazol-4-yl]methyl}-6-hydroxy-5-oxo-4,5-dihydrothieno[3,2-b]pyridine-7-carboxylic acid]",< 200,750 to 2250,2250 to 10000
"CS(=O)(=O)Nc1ccc(Cn2c(=O)c(O)c(C(=O)O)c3sccc32)cc1 [Example 16, 6-hydroxy-4-[[4-(methanesulfonamido)phenyl]methyl]-5-oxo-thieno[3,2-b]pyridine-7-carboxylic acid]",< 200,250 to 750,2250 to 10000
"CS(=O)(=O)c1cccc(Cn2c(=O)c(O)c(C(=O)O)c3sccc32)c1 [Example 63, 6-hydroxy-4-[3-(methylsulfonyl)benzyl]-5-oxo-4,5-dihydrothieno[3,2-b]pyridine-7-carboxylic acid]",750 to 2250,2250 to 10000,2250 to 10000
"O=C(O)c1c(O)c(=O)n(Cc2cnn(Cc3ccnnc3)c2)c2ccsc12 [Example 132, 6-hydroxy-5-oxo-4-{[1-(pyridazin-4-ylmethyl)-1H-pyrazol-4-yl]methyl}-4,5-dihydrothieno[3,2-b]pyridine-7-carboxylic acid]",< 200,2250 to 10000,2250 to 10000
"O=C(O)c1c(O)c(=O)n(Cc2cnn(Cc3ccccc3)c2)c2ccsc12 [Example 122, 4-[(1-benzyl-1H-pyrazol-4-yl)methyl]-6-hydroxy-5-oxo-4,5-dihydrothieno[3,2-b]pyridine-7-carboxylic acid]",< 200,2250 to 10000,750 to 2250
"O=C(O)c1c(O)c(=O)n(Cc2cnc3ccccn23)c2ccsc12 [Example 100, 6-hydroxy-4-(imidazo[1,2-a]pyridin-3-ylmethyl)-5-oxo-4,5-dihydrothieno[3,2-b]pyridine-7-carboxylic acid]",,750 to 2250,2250 to 10000
"COc1ccc(Cn2cc(Cn3c(=O)c(O)c(C(=O)O)c4sccc43)cn2)cc1 [Example 126, 6-hydroxy-4-{[1-(4-methoxybenzyl)-1H-pyrazol-4-yl]methyl}-5-oxo-4,5-dihydrothieno[3,2-b]pyridine-7-carboxylic acid]",,2250 to 10000,2250 to 10000
"COc1ccc(Cn2c(=O)c(O)c(C(=O)O)c3sccc32)cn1 [Example 98, 6-hydroxy-4-[(6-methoxypyridin-3-yl)methyl]-5-oxo-4,5-dihydrothieno[3,2-b]pyridine-7-carboxylic acid]",,2250 to 10000,2250 to 10000
